This is an account of results in patent US20210311050A1, “TARGETING PATHOGENIC B CELLS IN AUTOIMMUNITY” (Research Foundation for the STATE UNIVERSITY OF NEW YORK, priority 2018, published 2021).

The subject of one assay is CD11c^+ T-bet^+ B cells. Description: Depletion of splenic CD11c+ T-bet+ B cells in E. muris-infected mice (flow cytometry). Type of assay: in vivo, C57BL/6 mice. (Flow cytometry measures light scatter and fluorescence of single cells or particles in a stream.)
The subject of assay [1] is CD11c^+ CD19^+ B cells. Nature of the assay: In vitro agonist treatment of T cell-depleted spleen cells from E. muris-infected mice. Type of assay: cell-based. Particulars: 48 hours. The procedure: FIGS. 6A-6B. In vitro agonist treatment eliminated T-bet^+ B cells. CD11c and CD19 flow cytometry data using B cells isolated from (A) vehicle-treated splenocytoes and (B) A2aR agonist (CGS21680)-treated splenocytes. C57BL/6 mice were infected with E. muris; 30 days post-infection, T cell-depleted spleen cells were incubated in cell culture medium treated with vehicle, or CGS21680 (1 μM), for 48 hours. Approximately 50% of the CD11c^+ CD19^+ B cells were depleted by the agonist.
FIGS. 7A-7B. In vitro Regadenoson treatment eliminated T-bet^+ B cells. (A) vehicle treated splenocytes and (B) agonist (Regadenoson)-treated splenocytes. Mice were infected with E. muris; 44 days post-infection, T cell-depleted spleen cells were incubated in medium with or without Regadenson (10 μM), for 48 hours. Approximately 30% of the CD11c^+ CD19^+ B cells were depleted by Regadenoson in vitro.

The subject of assay [2] is T-bet+ Age-related B cells (ABCs). Description: Depletion of T-bet+ Age-related B cells (ABCs) in aged mice. Type of assay: in vivo. The note with it: administered at day 0, 4 and 6; sacrificed day 7; flow cytometry. The procedure: FIG. 8A-8C. T-bet+ Age-related B cells (ABCs) were depleted in aged mice upon CGS21680 treatment. CD11c and CD19 flow cytometry data from (A) vehicle-treated and (B) A2aR agonist-(CGS21680) treated aged mice. CGS21680 was administered at day 0, 4 and 6. Mice were sacrificed on day 7 and ABCs were identified using flow cytometry. (C) Quantification of the data in (A) and (B).

In assay [3] the test system is CD11c^+ CD19^+ B cells. Description: Depletion of T-bet+ B cells in lupus-prone MRL/lpr mice (flow cytometry of spleen cells). Type of assay: in vivo, MRL/lpr (MRL/MpJ-Fas^lpr/J) mice. Particulars: 12 to 13 week old MRL/lpr mice, treated every other day for 7 days. On the procedure:
FIGS. 5A-5B. Agonist treatment eliminated T-bet^+ B cells in lupus-prone MRL/lpr (MRL/MpJ-Fas^lpr/J) mice. CD11c and CD19 flow cytometry data from (A) vehicle-treated mice and (B) A2aR agonist (CGS21680)-treated mice. 12 to 13 week old MRL/lpr mice were treated with vehicle, or CGS21680, every other day for 7 days, at which time spleen cells were analyzed by flow cytometry.

The test system of assay [4] is anti-nuclear antibodies (ANAs). Description: Anti-nuclear antibodies in lupus-prone MRL/lpr mice. In kind it is in vivo. Particulars: once weekly from 9 weeks of age, sacrificed at 15 weeks of age. The text has this:
FIG. 9. […] CGS21680-treated mice had much lower amounts of anti-nuclear antibodies (ANAs). ANAs are a signature of disease in lupus mice.

For assay [5], the system named is CD11c^+ CD19^+ or T-bet^+ CD19^+ B cells. Description: Depletion of T-bet+ B cells in lupus-prone SLE1.2.3 mice (flow cytometry of spleen cells). In kind it is in vivo, SLE1.2.3 (B6.NZMs^Sle1/Sle2/Sle3) mice. The note with it: nine-month old SLE mice, treated every other day for 7 days, n=6. On the procedure:
FIGS. 4A-4D. Agonist treatment eliminated T-bet+ B cells in lupus-prone SLE1.2.3 (B6.NZMs^Sle1/Sle2/Sle3) mice. (A) CD11c and CD19 flow cytometry data from vehicle treated mice. (B) CD11c and CD19 flow cytometry data from A2aR agonist (CGS21680)-treated mice. (C) T-bet and CD19 flow cytometry data from vehicle-treated mice. (D) T-bet and CD19 flow cytometry data from agonist (CGS21680)-treated mice. Nine-month old SLE mice were treated with vehicle, or CGS21680, every other day for 7 days, at which time spleen cells were analyzed by flow cytometry. CD11c^+ CD19^+ ((A) and (B)) or T-bet^+ CD19^+ ((C) and (D)) B cells were analyzed. […] The data shown are representative of an experiment where n=6.

Assay [6] concerns CD11c^+ CD19^+ B cells (also T-bet^+). Nature of the assay: Agonist treatment of E. muris-infected wild-type versus B cell-specific A2aR KO mice (flow cytometry of spleen cells). Type of assay: in vivo. Particulars: 30 days post-infection, treated every other day for 7 days. The procedure:
FIGS. 3A-3B. […] CD11c and CD19 flow cytometry data from (A) Wild type mice (B) mice that lacked A2aR only on B cells. The mice were infected with E. muris; 30 days post-infection wild-type or MB1-cre×A2aR^fl/fl (B cell-specific A2aR KO) mice were treated with CGS21680 every other day for 7 days, at which time spleen cells were analyzed by flow cytometry. CD11c^+ CD19^+ B cells (also T-bet^+) were eliminated in the wild-type mice (A), but not in the B cell-specific A2aR KO mice (B). The data shown are representative of several experiments.

Each structure is given as a SMILES string. “Also recorded” adds a separate entry of the source.

Consider `CNC(=O)c1cnn(-c2nc(N)c3ncn([C@@H]4O[C@H](CO)[C@@H](O)[C@H]4O)c3n2)c1` [Regadenoson], for which the “number of Tbet^+ B cells in splenocytes” value in the assay with CD11c^+ T-bet^+ B cells (2.5 mg/kg every other day for 7 days from day 30 post-infection, analysed day 37, P=0.0049 vs vehicle) is on record as “reduced”. For the same molecule, the “CD11c^+ CD19^+ B cells depleted in vitro” value with CD11c^+ CD19^+ B cells [1] (10 μM, 44 days post-infection) is reported as “Approximately 30%”.
Take `CCNC(=O)[C@H]1O[C@@H](n2cnc3c(N)nc(NCCc4ccc(CCC(=O)O)cc4)nc32)[C@H](O)[C@@H]1O` [CGS21680]: in assay [2], the “T-bet+ Age-related B cells (ABCs) in aged mice” value is “depleted”. For the same molecule, the “CD11c^+ T-bet^+ B cells in spleen after cessation of treatment” value with CD11c^+ T-bet^+ B cells (2.5 mg/kg daily for 7 days from day 30, spleen harvested 12 days following cessation (day 48), p<0.0001 vs vehicle) was “prolonged depletion; also recorded: Significant cell depletion”. In addition, the “CD11c^+ T-bet^+ B cells in spleen after agonist treatment” value in the assay on CD11c^+ T-bet^+ B cells (E. muris infection day 0, 2.5 mg/kg daily for 7 days from day 30, spleen harvested day 37, p<0.0001 vs vehicle, 2.5 mg/kg) is listed as “largely absent; also recorded: major reduction”. Also, in the assay with CD11c^+ CD19^+ B cells [3], the “CD11c^+ CD19^+ B cells in spleen” value is given as “Most of the CD11c^+ CD19^+ B cells were eliminated”. Further, the “CD11c^+ CD19^+ B cells depleted in vitro” value in the assay on CD11c^+ CD19^+ B cells [1] (1 μM, 30 days post-infection) is recorded as “Approximately 50%”. Besides, the “amounts of anti-nuclear antibodies (ANAs)” value in assay [4] was “much lower”. For the same molecule, in assay [5], the “CD11c^+ CD19^+ or T-bet^+ CD19^+ B cells in spleen” value is listed as “largely eliminated”. Also, the “CD11c^+ CD19^+ B cells (also T-bet^+) in spleen, B cell-specific A2aR KO mice” value in assay [6] (MB1-cre×A2aR^fl/fl mice) is “did not eliminate”. For the same molecule, in assay [6] (wild-type mice), the “CD11c^+ CD19^+ B cells (also T-bet^+) in spleen, wild-type mice” value is listed as “eliminated”.
